The results in this text go back to publication PMC4798879 (Nature chemical biology, 2016).

The test system of data set [1] is H2122 cells. Description: Compound stability in cell lines, H2122. The data set is classed as in vitro ADME, human.
The test system of data set [2] is SCD (p37 and p30).
Data set [3] deals with panel of 12 NSCLC cell lines. Description: Concentration-response toxicity across panel of NSCLC cell lines. The data set is classed as cell-based, human.
The test system of data set [4] is H2122. The experiment in a line: Compound concentration response, viability. The data set is classed as cell-based, human. The note with it: read-out: IC50 (concentration that resulted in 50% less viability); H2122 cells.
A short description of data set [5]: Pharmacokinetic studies in CD-1 mice. The data set is classed as in vivo, mouse. The note with it: 6 and 20 mg/kg.
The test system of data set [6] is H2122 derived tumors. Description: Xenograft experiment, H2122 derived tumors in Nod-Scid mice. The data set is classed as in vivo, mouse. Particulars: 20 mg/kg once daily.
Data set [7] deals with sebocytes. The experiment in a line: In vivo toxicity study, sebocytes in skin of CD-1 mice. Particulars: 20 mg/kg once a day for two weeks. Set-up: species or system mouse.
Data set [8] in a line: Body weight loss in xenograft experiments. The data set is classed as in vivo, mouse. Particulars: once daily dosing.

Molecules are shown by their SMILES.

In the case of `CCCCc1ccc(N=CNO)c(C)c1` [HET0016], the “effect on SW208108 metabolism” value in data set [1] is “inhibited both the loss of SW208108 and the generation of dMe-SW208108”. For the same compound, in data set [2] (H2122, 0.1 µM SW208108), the “effect on binding of SW208108 to SCD” value is “inhibited the binding of SW208108 to SCD in a dose dependent fashion”. In addition, in data set [2] (H2122, 0.1 µM dMe-SW208108), the “effect on ability of dMe-SW208108 to bind SCD” value was “no effect”.

Take `COc1ccc(CCNC(=O)C(=O)Nc2ccc(Cl)cc2)cc1` [SW027951]: in data set [3] (6 μM), the “toxicity in eight of the remaining ten cell lines” value is given as “insensitive”. Besides, the “toxicity in HCC44 and HCC95” value in data set [3] (HCC44 and HCC95 cell lines) is reported as “intermediate toxicity”.

Turning to `O=C(NCCC1CC1)c1ccc(N2CCN(C(=O)c3cc(F)ccc3C(F)(F)F)CC2)nn1` [Xenon-45], in data set [4], the IC50 worked out at 95 nM. Further, the pharmacokinetic properties result in data set [5] is “favorable pharmacokinetic properties”. For the same compound, the “growth of H2122 tumors” value in data set [6] is “no efficacy”. In addition, the “sebocytes in hair follicles of skin” value in data set [7] was “devoid of sebocytes”. In addition, in data set [8], the Weight loss entry is on record as “up to 7%”.
